# From patent US20250143299A1, “METHODS AND COMPOSITIONS FOR CONTROLLING PESTS IN VEGETABLES” (Globachem NV, priority 2022, published 2025)
# Key:
# Format in all cases: in vivo
# Aphis fabae = assay: Example 5 pea trial, Aphis fabae (black bean aphid) control; conditions: appl. AB
# Method: Peas—Aphis fabae (Black bean aphid)
# The trial was conducted on peas, variety Batuta, 4 replicates per plot. A water volume of 200 L water/ha was used for each application. Two applications were made, Application A was made at first infestation and Application B was made 14d later. Each plot at least 12 m^2.
# Insects present at the time of application: at App A 197/20 shoots, at App B in untreated: 443/20 shoots.
# Myzus persicae = assay: Example 10 potato trial, Myzus persicae (green aphids, MYZUPE) control; conditions: appl. AB
# Text: Potatoes—Myzus persicae (Green Aphids)—MYZUPE
# Potatoes, variety Agata, 4 replicates per plot. A water volume of 200 L water/ha was used for each application. Two applications were made at a 14d interval.
# Application made at the occurrence of the insects. Application A was made at Stage BBCH 38-41, application B was made 14 days later at Stage BBCH 41-43.
# Insects present at the time of application: at App A 93 aphids per 25 leaves at App B in untreated: 160 aphids per 25 leaves
# Diabrotica speciosa = assay: Example 11 Trial 2 potato, Diabrotica speciosa (DIABSC) control; conditions: appl. AB
# Text: Potatoes—Diabrotica speciosa (Cucurbit Beetle)—DIABSC A water volume of 400 L water/ha was used for each application. Application A made at the occurrence of the insects; application B was made 7 days later. Each plot was 15 m^2. 5.15 insects per 20 plants were present at the time of application.
# Pea = assay: Example 6 phytotoxicity, necrosis/burn (PHYNEC) on pea; parameters: scale not given here; conditions: appl. AB
# Text: Trial conducted on peas, variety Navarro, 4 replicates per plot. Each plot was at least 12 m^2, a water volume of 200 L water per ha was used for the application.
# Insects present at the time of application A: 106 aphids per 20 shoots. The stage of the crop at application A was BBCH 75-77, and at application B, (14 DAA) BBCH 79-81.
# Spodoptera exigua = assay: Example 1 tomato plot trial, Spodoptera exigua (beet armyworm) control; conditions: appl. A, 15 DAA
# Method: Tomato—Spodoptera exigua (Beet Armyworm)
# Trial conducted in 4 replicates on plots of 10 plants each. Application A was made at the occurrence of the insects.
# The statistical design of this study was a completely randomized blocks design including 4 replicates. The homogeneity of variance was tested for all treatments and assessment dates by means of the Bartlett's test. In order to study the effect of the applied treatments for each assessment data, means were compared using Student-Newman-Keuls (p=0.05).
# Potato = assay: Example 8 Trial 1 phytotoxicity, general injury (PHYGEN) on potato; parameters: scale not given here; conditions: appl. AB
# Text: Trial 1: Potatoes, variety Lady Amarilla, 4 replicates per plot, each plot at least 25 m^2. A water volume of 200 L water/ha was used for each application. Two applications were made at a 14d interval.
# Application made at the occurrence of the insects. Application A was made at Stage BBCH 36, application B was made 14 days later at Stage BBCH 51.
smiles,measurement,setting,value
"CCCCCCCCC(=O)O [PA, pelargonic acid]","COUINS (count of insects), 20 shoots","Aphis fabae; 585 g/ha (0.9 L/ha), 3 DAA",7.66 % UNCK
same,"COUINS (count of insects), 20 shoots","Aphis fabae; 585 g/ha (0.9 L/ha), 3 DAB",32.43 % UNCK
same,"COUINS (count of insects), 20 shoots","Aphis fabae; 585 g/ha (0.9 L/ha), 7 DAA",17.73 % UNCK
same,"COUINS (count of insects), 20 shoots","Aphis fabae; 585 g/ha (0.9 L/ha), 7 DAB",33.74 % UNCK
same,"COUINS (count of insects), 20 shoots","Aphis fabae; 975 g/ha (1.5 L/ha), 3 DAA",9.21 % UNCK
same,"COUINS (count of insects), 20 shoots","Aphis fabae; 975 g/ha (1.5 L/ha), 3 DAB",39.08 % UNCK
same,"COUINS (count of insects), 20 shoots","Aphis fabae; 975 g/ha (1.5 L/ha), 7 DAA",22.27 % UNCK
same,"COUINS (count of insects), 20 shoots","Aphis fabae; 975 g/ha (1.5 L/ha), 7 DAB",51.21 % UNCK
same,"COUINS (count of insects), 20 shoots","Aphis fabae; 1300 g/ha (2.0 L/ha), 3 DAA",44.25 % UNCK
same,"COUINS (count of insects), 20 shoots","Aphis fabae; 1300 g/ha (2.0 L/ha), 3 DAB",65.79 % UNCK
same,"COUINS (count of insects), 20 shoots","Aphis fabae; 1300 g/ha (2.0 L/ha), 7 DAA",63.58 % UNCK
same,"COUINS (count of insects), 20 shoots","Aphis fabae; 1300 g/ha (2.0 L/ha), 7 DAB",65.14 % UNCK
same,"COUINS (count of insects), 20 shoots","Aphis fabae; 2600 g/ha (4.0 L/ha), 3 DAA",72.11 % UNCK
same,"COUINS (count of insects), 20 shoots","Aphis fabae; 2600 g/ha (4.0 L/ha), 3 DAB",76.77 % UNCK
same,"COUINS (count of insects), 20 shoots","Aphis fabae; 2600 g/ha (4.0 L/ha), 7 DAA",82.08 % UNCK
same,"COUINS (count of insects), 20 shoots","Aphis fabae; 2600 g/ha (4.0 L/ha), 7 DAB",76.67 % UNCK
same,"COUINS, #/25 leaves","Myzus persicae; 585 g/ha (0.9 L/ha), 3 DAA",38.8 % UNCK
same,"COUINS, #/25 leaves","Myzus persicae; 585 g/ha (0.9 L/ha), 3 DAB",68.8 % UNCK
same,"COUINS, #/25 leaves","Myzus persicae; 585 g/ha (0.9 L/ha), 7 DAA",48.7 % UNCK
same,"COUINS, #/25 leaves","Myzus persicae; 585 g/ha (0.9 L/ha), 7 DAB",68.4 % UNCK
same,"COUINS, #/25 leaves","Myzus persicae; 585 g/ha (0.9 L/ha), 14 DAA",52.3 % UNCK
same,"COUINS, #/25 leaves","Myzus persicae; 585 g/ha (0.9 L/ha), 14 DAB",73.4 % UNCK
same,"COUINS, #/25 leaves","Myzus persicae; 975 g/ha (1.5 L/ha), 3 DAA",42.9 % UNCK
same,"COUINS, #/25 leaves","Myzus persicae; 975 g/ha (1.5 L/ha), 3 DAB",72.6 % UNCK
same,"COUINS, #/25 leaves","Myzus persicae; 975 g/ha (1.5 L/ha), 7 DAA",51.2 % UNCK
same,"COUINS, #/25 leaves","Myzus persicae; 975 g/ha (1.5 L/ha), 7 DAB",72.4 % UNCK
same,"COUINS, #/25 leaves","Myzus persicae; 975 g/ha (1.5 L/ha), 14 DAA",54.9 % UNCK
same,"COUINS, #/25 leaves","Myzus persicae; 975 g/ha (1.5 L/ha), 14 DAB",73.2 % UNCK
same,"COUINS, #/25 leaves","Myzus persicae; 1300 g/ha (2.0 L/ha), 3 DAA",61.9 % UNCK
same,"COUINS, #/25 leaves","Myzus persicae; 1300 g/ha (2.0 L/ha), 3 DAB",86.1 % UNCK
same,"COUINS, #/25 leaves","Myzus persicae; 1300 g/ha (2.0 L/ha), 7 DAA",63.9 % UNCK
same,"COUINS, #/25 leaves","Myzus persicae; 1300 g/ha (2.0 L/ha), 7 DAB",86.1 % UNCK
same,"COUINS, #/25 leaves","Myzus persicae; 1300 g/ha (2.0 L/ha), 14 DAA",67.3 % UNCK
same,"COUINS, #/25 leaves","Myzus persicae; 1300 g/ha (2.0 L/ha), 14 DAB",86.5 % UNCK
same,"COUINS, #/25 leaves","Myzus persicae; 2600 g/ha (4.0 L/ha), 3 DAA",68.4 % UNCK
same,"COUINS, #/25 leaves","Myzus persicae; 2600 g/ha (4.0 L/ha), 3 DAB",92.6 % UNCK
same,"COUINS, #/25 leaves","Myzus persicae; 2600 g/ha (4.0 L/ha), 7 DAA",70.8 % UNCK
same,"COUINS, #/25 leaves","Myzus persicae; 2600 g/ha (4.0 L/ha), 7 DAB",92.5 % UNCK
same,"COUINS, #/25 leaves","Myzus persicae; 2600 g/ha (4.0 L/ha), 14 DAA",74.2 % UNCK
same,"COUINS, #/25 leaves","Myzus persicae; 2600 g/ha (4.0 L/ha), 14 DAB",92.4 % UNCK
same,"# Insects, 20 plants","Diabrotica speciosa; 487.5 g/ha (0.75 L/ha), 3 DAA",38.10b % UNCK
same,"# Insects, 20 plants","Diabrotica speciosa; 487.5 g/ha (0.75 L/ha), 3 DAB",25.00ab % UNCK
same,"# Insects, 20 plants","Diabrotica speciosa; 650 g/ha (1 L/ha), 3 DAA",61.90bc % UNCK
same,"# Insects, 20 plants","Diabrotica speciosa; 650 g/ha (1 L/ha), 3 DAB",25.00ab % UNCK
same,"# Insects, 20 plants","Diabrotica speciosa; 975 g/ha (1.5 L/ha), 7 DAA",100.00d % UNCK
same,"# Insects, 20 plants","Diabrotica speciosa; 975 g/ha (1.5 L/ha), 7 DAB",100.00c % UNCK
same,"# Insects, 20 plants","Diabrotica speciosa; 975 g/ha (1.5 L/ha), 10 DAB",100.00c % UNCK
same,Phytotoxicity - Necrosis/burn (PHYNEC),"Pea; 585 g/ha (0.9 L/ha), 7 DAA",0
same,Phytotoxicity - Necrosis/burn (PHYNEC),"Pea; 585 g/ha (0.9 L/ha), 14 DAA",0
same,Phytotoxicity - Necrosis/burn (PHYNEC),"Pea; 975 g/ha (1.5 L/ha), 7 DAA",0
same,Phytotoxicity - Necrosis/burn (PHYNEC),"Pea; 975 g/ha (1.5 L/ha), 14 DAA",0
same,Phytotoxicity - Necrosis/burn (PHYNEC),"Pea; 1300 g/ha (2.0 L/ha), 7 DAA",3
same,Phytotoxicity - Necrosis/burn (PHYNEC),"Pea; 1300 g/ha (2.0 L/ha), 14 DAA",3
same,Phytotoxicity - Necrosis/burn (PHYNEC),"Pea; 2600 g/ha (4.0 L/ha), 7 DAA",37.5
same,Phytotoxicity - Necrosis/burn (PHYNEC),"Pea; 2600 g/ha (4.0 L/ha), 14 DAA",37.5
same,"Damage severity (1-4), plant",Spodoptera exigua; 650 g/ha (1 L/ha),61.37 a % UNCK
same,Nr damaged leaves,Spodoptera exigua; 650 g/ha (1 L/ha),63.30 a % UNCK
same,Nr of larvae,Spodoptera exigua; 650 g/ha (1 L/ha),73.85 b % UNCK
same,"Damage severity (1-4), plant",Spodoptera exigua; 1300 g/ha (2 L/ha),61.01 a % UNCK
same,Nr damaged leaves,Spodoptera exigua; 1300 g/ha (2 L/ha),71.72 a % UNCK
same,Nr of larvae,Spodoptera exigua; 1300 g/ha (2 L/ha),79.47 b % UNCK
same,"Damage severity (1-4), plant",Spodoptera exigua; 2600 g/ha (4 L/ha),64.85 a % UNCK
same,Nr damaged leaves,Spodoptera exigua; 2600 g/ha (4 L/ha),63.54 a % UNCK
same,Nr of larvae,Spodoptera exigua; 2600 g/ha (4 L/ha),90.18 a % UNCK
same,Phytotoxicity - General Injury (PHYGEN),"Potato; 585 g/ha (0.9 L/ha), 3 DAB",0
same,Phytotoxicity - General Injury (PHYGEN),"Potato; 585 g/ha (0.9 L/ha), 7 DAA",0
same,Phytotoxicity - General Injury (PHYGEN),"Potato; 585 g/ha (0.9 L/ha), 8 DAB",0
same,Phytotoxicity - General Injury (PHYGEN),"Potato; 585 g/ha (0.9 L/ha), 15 DAA",0
same,Phytotoxicity - General Injury (PHYGEN),"Potato; 975 g/ha (1.5 L/ha), 3 DAB",0
same,Phytotoxicity - General Injury (PHYGEN),"Potato; 975 g/ha (1.5 L/ha), 7 DAA",1.3
same,Phytotoxicity - General Injury (PHYGEN),"Potato; 975 g/ha (1.5 L/ha), 8 DAB",0
same,Phytotoxicity - General Injury (PHYGEN),"Potato; 975 g/ha (1.5 L/ha), 15 DAA",0
same,Phytotoxicity - General Injury (PHYGEN),"Potato; 1300 g/ha (2.0 L/ha), 3 DAB",1
same,Phytotoxicity - General Injury (PHYGEN),"Potato; 1300 g/ha (2.0 L/ha), 7 DAA",1
same,Phytotoxicity - General Injury (PHYGEN),"Potato; 1300 g/ha (2.0 L/ha), 8 DAB",1
same,Phytotoxicity - General Injury (PHYGEN),"Potato; 1300 g/ha (2.0 L/ha), 15 DAA",0
same,Phytotoxicity - General Injury (PHYGEN),"Potato; 2600 g/ha (4.0 L/ha), 3 DAB",4.5
same,Phytotoxicity - General Injury (PHYGEN),"Potato; 2600 g/ha (4.0 L/ha), 7 DAA",6
same,Phytotoxicity - General Injury (PHYGEN),"Potato; 2600 g/ha (4.0 L/ha), 8 DAB",5
same,Phytotoxicity - General Injury (PHYGEN),"Potato; 2600 g/ha (4.0 L/ha), 15 DAA",4
